Results reported in US8846947B2, “Benzimidazoles and related analogs as sirtuin modulators” (GlaxoSmithKline LLC, priority 2008, dated 2014).
Read-outs that look alike come from different tables or passages of the source.

Target: T1, SIRT1 (Homo sapiens, UniProt Q96EB6)
T1 sequence (Q96EB6 1-747): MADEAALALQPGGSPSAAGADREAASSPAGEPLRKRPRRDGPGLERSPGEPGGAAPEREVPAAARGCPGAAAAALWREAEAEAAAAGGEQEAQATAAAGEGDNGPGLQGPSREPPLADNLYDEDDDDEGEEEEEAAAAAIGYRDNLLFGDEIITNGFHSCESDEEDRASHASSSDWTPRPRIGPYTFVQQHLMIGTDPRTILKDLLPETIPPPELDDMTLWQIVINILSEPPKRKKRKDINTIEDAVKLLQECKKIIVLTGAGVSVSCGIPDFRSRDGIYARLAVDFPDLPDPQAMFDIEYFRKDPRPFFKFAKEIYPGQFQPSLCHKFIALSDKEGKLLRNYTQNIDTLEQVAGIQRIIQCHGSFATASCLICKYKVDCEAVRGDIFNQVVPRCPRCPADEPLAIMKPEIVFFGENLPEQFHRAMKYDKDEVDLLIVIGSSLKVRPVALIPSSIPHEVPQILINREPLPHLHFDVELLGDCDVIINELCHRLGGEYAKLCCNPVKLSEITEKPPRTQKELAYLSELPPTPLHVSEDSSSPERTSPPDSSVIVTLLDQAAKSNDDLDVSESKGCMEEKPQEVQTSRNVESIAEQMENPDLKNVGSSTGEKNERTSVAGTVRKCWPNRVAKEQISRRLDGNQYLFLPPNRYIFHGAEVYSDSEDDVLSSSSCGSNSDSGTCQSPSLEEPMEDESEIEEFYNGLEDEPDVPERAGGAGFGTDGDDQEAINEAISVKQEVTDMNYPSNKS
Assay: Mass spectrometry based SIRT1 deacetylase activation assay (acetylated p53-derived peptide substrate)
Assay type: biochemical
Text: A mass spectrometry based assay was used to identify modulators of SIRT1 activity. The mass spectrometry based assay utilizes a peptide having 20 amino acid residues as follows: Ac-EE-K(biotin)-GQSTSSHSK(Ac)NleSTEG-K(5TMR)-EE-NH2 (SEQ ID NO: 1) wherein K(Ac) is an acetylated lysine residue and Nle is a norleucine. The peptide is labeled with the fluorophore 5TMR (excitation 540 nm/emission 580 nm) at the C-terminus. The sequence of the peptide substrate is based on p53 with several modifications. In addition, the methionine residue naturally present in the sequence was replaced with the norleucine because the methionine may be susceptible to oxidation during synthesis and purification.
The mass spectrometry assay is conducted as follows: 0.5 μM peptide substrate and 120 μM βNAD^+ is incubated with 10 nM SIRT1 for 25 minutes at 25° C. in a reaction buffer (50 mM Tris-acetate pH 8, 137 mM NaCl, 2.7 mM KCl, 1 mM MgCl2, 5 mM DTT, 0.05% BSA). Test compounds may be added to the reaction as described above. […] After the 25 minute incubation with SIRT1, 10 μL of 10% formic acid is added to stop the reaction. Reactions are sealed and frozen for later mass spec analysis. Determination of the mass of the substrate peptide allows for precise determination of the degree of acetylation (i.e. starting material) as compared to deacetylated peptide (product).
A control for inhibition of sirtuin activity is conducted by adding 1 μL of 500 mM nicotinamide as a negative control at the start of the reaction (e.g., permits determination of maximum sirtuin inhibition). A control for activation of sirtuin activity is conducted using 10 nM of sirtuin protein, with 1 μL of DMSO in place of compound, to determine the amount of deacetylation of the substrate at a given timepoint within the linear range of the assay. This timepoint is the same as that used for test compounds and, within the linear range, the endpoint represents a change in velocity.
For the above assay, SIRT1 protein was expressed and purified as follows. […] The protein was expressed by induction with 1 mM IPTG as an N-terminal His-tag fusion protein at 18° C. overnight and harvested at 30,000×g. Cells were lysed with lysozyme in lysis buffer (50 mM Tris-HCl, 2 mM Tris[2-carboxyethyl]phosphine (TCEP), 10 μM ZnCl2, 200 mM NaCl) and further treated with sonication for 10 min for complete lysis. The protein was purified over a Ni-NTA column (Amersham) and fractions containing pure protein were pooled, concentrated and run over a sizing column (Sephadex S200 26/60 global). The peak containing soluble protein was collected and run on an Ion-exchange column (MonoQ). Gradient elution (200 mM-500 mM NaCl) yielded pure protein. This protein was concentrated and dialyzed against dialysis buffer (20 mM Tris-HCl, 2 mM TCEP) overnight. The protein was aliquoted and frozen at −80° C. until further use.
Sirtuin modulating compounds that activated SIRT1 were identified using the assay described above and are shown below in Table 1. The EC1.5 values for the activating compounds are represented by A (EC1.5<1.0 uM), B (EC1.5 1-25 uM), C (EC1.5 >25 uM). The percent maximum fold activation is represented by A (Fold activation >200%) or B (Fold Activation <200%).

[1] = 0.5 μM peptide substrate, 120 μM βNAD+, 10 nM SIRT1, 25 minutes at 25° C.
[2] = 0.5 μM peptide substrate, 120 μM βNAD+, 10 nM SIRT1, 25 min at 25° C.
[3] = 0.5 μM peptide substrate, 120 μM βNAD+, 10 nM SIRT1, 25 min at 25° C., read-out: EC1.5

EC1.5 [1]	Fold Act. (percent maximum fold activation) [1]	Fold Act. (percent maximum fold activation) [2]	EC1.5 [3] [nM]	SMILES	other results
A (EC1.5<1.0 uM)	A (Fold activation >200%)	–	–	O=C(Nc1nccs1)c1cc(N2CCOCC2)cc2[nH]c(-c3ccccc3C(F)(F)F)nc12 [Compound 628, 6-morpholino-N-(thiazol-2-yl)-2-(2-(trifluoromethyl)phenyl)-1H-benzo[d]imidazole-4-carboxamide]	–
B (EC1.5 1-25 uM)	A (Fold activation >200%)	–	–	O=C(Nc1ccccn1)c1cncc2[nH]c(-c3cc(F)ccc3C(F)(F)F)nc12 [Compound 654]	–
A (EC1.5<1.0 uM)	A (Fold activation >200%)	–	–	O=C(Nc1cccc(CN2CCOCC2)n1)c1cccc2[nH]c(-c3cc(F)ccc3F)nc12 [Compound 855]	–
A (EC1.5<1.0 uM)	A (Fold activation >200%)	–	–	O=C(Nc1cccc(OCC(O)CO)c1)c1cccc2[nH]c(-c3ccc(F)cc3C(F)(F)F)nc12 (stereo not shown) [Compound 679]	–
–	–	A (Fold activation >200%)	1000 to 25000	O=C(Nc1cccnc1)c1cccc2[nH]c(-c3ccccc3OC3CCNCC3)nc12 [Compound 539]	–
B (EC1.5 1-25 uM)	B (Fold Activation <200%)	–	–	O=C(Nc1ccccn1)c1cncc2[nH]c(-c3ccc(F)cc3C(F)(F)F)nc12 [Compound 694]	–
A (EC1.5<1.0 uM)	A (Fold activation >200%)	–	–	O=C(Nc1ccc(CN2CCCC2)nc1)c1cccc2[nH]c(-c3ccccc3C(F)(F)F)nc12 [Compound 683]	–
A (EC1.5<1.0 uM)	A (Fold activation >200%)	–	–	O=C(Nc1ccc(OC[C@H](O)CO)cc1)c1cccc2[nH]c(-c3cccnc3)nc12 [Compound 797]	–
–	–	B (Fold Activation <200%)	1000 to 25000	CCCN1CCc2cc(-c3nc4c(C(=O)Nc5ncc(C)s5)cccc4[nH]3)ccc21 [Compound 570]	–
–	–	–	–	O=C(NCc1ccncc1)c1cccc2[nH]c(-c3cccc(C(F)(F)F)c3)nc12 [Compound 271]	EC1.5: C (EC1.5 >25 uM); Fold Act. (percent maximum fold activation): B (Fold Activation <200%)
B (EC1.5 1-25 uM)	A (Fold activation >200%)	–	–	O=C(Nc1nccs1)c1cncc2[nH]c(-c3cc(F)ccc3C(F)(F)F)nc12 [Compound 653]	–
–	–	–	–	Cc1cc(NC(=O)c2cccc3[nH]c(-c4cccc(C(F)(F)F)c4)nc23)sn1 [Compound 306]	EC1.5: B (EC1.5 1-25 uM); Fold Act. (percent maximum fold activation): B (Fold Activation <200%)
A (EC1.5<1.0 uM)	A (Fold activation >200%)	–	–	Cc1nc(C)c(-c2nc3c(C(=O)Nc4ccc(OC[C@H](O)CO)cc4)cccc3[nH]2)s1 [Compound 798]	–
–	–	A (Fold activation >200%)	< 1000	O=C(Nc1ccccn1)c1cccc2[nH]c(-c3cc(N4CCOCC4)ccc3C(F)(F)F)nc12 [Compound 449]	–
–	–	B (Fold Activation <200%)	< 1000	CC(C)(C)c1ccc(OCCN2CCOCC2)c(-c2nc3c(C(=O)Nc4ccccn4)cccc3[nH]2)c1 [Compound 548]	–
–	–	A (Fold activation >200%)	1000 to 25000	Cc1ccc(OCCN2CCOCC2)c(-c2nc3c(C(=O)Nc4ccccn4)cccc3[nH]2)c1 [Compound 546]	–

EC1.5 [1]	Fold Act. (percent maximum fold activation) [1]	Fold Act. (percent maximum fold activation) [2]	EC1.5 [3] [nM]	SMILES	other results
–	–	A (Fold activation >200%)	1000 to 25000	Cc1cc(NC(=O)c2cccc3[nH]c(-c4ccnn4-c4ccccc4)nc23)no1 [Compound 466]	–
A (EC1.5<1.0 uM)	A (Fold activation >200%)	–	–	O=C(Nc1ccccn1)c1cc(N2CCOCC2)cc2[nH]c(-c3ccc(F)cc3C(F)(F)F)nc12 [Compound 690]	–
A (EC1.5<1.0 uM)	A (Fold activation >200%)	–	–	O=C(Nc1cccnn1)c1cncc2[nH]c(-c3ccc(N4CCCC4)cc3C(F)F)nc12 [Compound 802]	–
–	–	A (Fold activation >200%)	< 1000	Cc1cc(NC(=O)c2cccc3[nH]c(-c4ccc(N5CCOCC5)cc4C(F)(F)F)nc23)n(C)n1 [Compound 592]	–
–	–	–	–	O=C(Nc1cccc[n+]1[O-])c1cccc2[nH]c(-c3ccc(Cl)cc3C(F)(F)F)nc12 [Compound 330]	EC1.5: B (EC1.5 1-25 uM); Fold Act. (percent maximum fold activation): A (Fold activation >200%)
A (EC1.5<1.0 uM)	A (Fold activation >200%)	–	–	CS(=O)(=O)c1ccc(F)cc1-c1nc2c(C(=O)Nc3ccccn3)cccc2[nH]1 [Compound 658]	–
–	–	–	–	Cc1nc(-c2ccccc2)c(-c2nc3c(C(=O)Nc4cccnc4)cccc3[nH]2)s1 [Compound 370]	EC1.5: A (EC1.5<1.0 uM); Fold Act. (percent maximum fold activation): A (Fold activation >200%)
–	–	A (Fold activation >200%)	1000 to 25000	O=C(Nc1cccnn1)c1cccc2[nH]c(-c3cccc(N4CCOCC4)c3)nc12 [Compound 470]	–
–	–	–	–	O=C(Nc1nccs1)c1cccc2[nH]c(-c3ccccc3OC(F)(F)F)nc12 [Compound 305]	EC1.5: A (EC1.5<1.0 uM); Fold Act. (percent maximum fold activation): A (Fold activation >200%)
–	–	A (Fold activation >200%)	1000 to 25000	O=C(Nc1cccc2[nH]c(-c3ccc(Cl)cc3C(F)(F)F)nc12)c1cnccn1 [Compound 419]	–
–	–	A (Fold activation >200%)	1000 to 25000	O=C(Nc1ccccn1)c1cccc2[nH]c(-c3cc(Cl)ccc3OCCN3CCOCC3)nc12 [Compound 502]	–
A (EC1.5<1.0 uM)	A (Fold activation >200%)	–	–	O=C(Nc1nccs1)c1cccc2nc(-c3ccc(N4CCCC4)cc3C(F)F)[nH]c12 [Compound 764]	–
–	–	B (Fold Activation <200%)	1000 to 25000	C[C@@H]1CN(CCOc2ccccc2-c2nc3c(C(=O)Nc4nccs4)cccc3[nH]2)C[C@H](C)O1 [Compound 578]	–
–	–	A (Fold activation >200%)	< 1000	O=C(Nc1cccnn1)c1cccc2[nH]c(-c3ccc(N4CCOCC4)cc3C(F)F)nc12 [Compound 555]	–
–	–	–	–	O=C(Nc1cc[n+]([O-])cc1)c1cccc2[nH]c(-c3cc(F)ccc3C(F)(F)F)nc12 [Compound 322]	EC1.5: A (EC1.5<1.0 uM); Fold Act. (percent maximum fold activation): A (Fold activation >200%)
–	–	A (Fold activation >200%)	1000 to 25000	CS(=O)(=O)c1ccccc1-c1nc2c(C(=O)Nc3cccnc3)cccc2[nH]1 [Compound 518]	–
